# Where two headings read alike, the source gives them in different places.
# Legend:
# MALME-3M [1] = tested on: MALME-3M
# UACC-62 [2] = tested on: UACC-62
# MALME-3M [3] = test: panel of 60 human tumor cell lines, growth inhibition (Melanoma); conditions: for CC50: read-out: LC50
# UACC-62 [4] = test: as above; conditions: for CC50: UACC-62, read-out: LC50; for IC (TGI): UACC-62, read-out: TGI
# OVCAR-4 = test: panel of 60 human tumor cell lines, growth inhibition (Ovarian Cancer); format: cell-based; conditions: Homo sapiens; for CC50: read-out: LC50 (the source's name)
# HL-60(TB) = test: cells; conditions: Homo sapiens; for GI50: HL-60; for CC50: HL-60, read-out: LC50; for IC (TGI): HL-60, read-out: TGI
# RPMI-8226 = test: panel of 60 human tumor cell lines, growth inhibition (Leukemia); conditions: for GI50 / CC50: Homo sapiens; for CC50: RPMI-8226, read-out: LC50
# [5] = MALME-3M, Log10 Concentration −4.0
# [6] = MALME-3M, Log10 Concentration −5.0
# [7] = MALME-3M, Log10 Concentration −6.0
# [8] = MALME-3M, Log10 Concentration −7.0
# [9] = MALME-3M, Log10 Concentration −8.0
# [10] = RPMI-8226, Log10 Concentration −4.0
# [11] = RPMI-8226, Log10 Concentration −5.0
# [12] = RPMI-8226, Log10 Concentration −6.0
# [13] = RPMI-8226, Log10 Concentration −7.0
# [14] = RPMI-8226, Log10 Concentration −8.0
# Excerpt for AML 052308 cells: Derivatives were screened for antileukemic activity against AML cells in culture (See FIGS. 1-7).
smiles,measurement,setting,value
C=C1C(=O)O[C@H]2[C@H]1CC/C(COC(=O)NCCN1CCCCC1)=C\CC[C@@]1(C)O[C@@H]21 [JVM 2-13],CC50,CCRF-CEM,> 100 µM
same,CC50,K-562,> 100 µM
same,CC50,MOLT-4,> 100 µM
same,CC50,SR,> 100 µM
same,CC50,A549/ATCC,98.5 µM
same,CC50,HOP-92,42.1 µM
same,CC50,NCI-H226,> 100 µM
same,CC50,NCI-H23,65.5 µM
same,CC50,NCI-H460,78.1 µM
same,CC50,NCI-H522,7.25 µM
same,CC50,HCC-2998,70.1 µM
same,CC50,HCT-15,50.7 µM
same,CC50,SW-620,50.3 µM
same,CC50,SF-268,60.2 µM
same,CC50,SF-295,> 100 µM
same,CC50,SNB-19,73.1 µM
same,CC50,SNB-75,48.8 µM
same,CC50,U251,64.1 µM
same,CC50,LOX IMVI,56.2 µM
same,CC50,MALME-3M [1],50.6 µM
same,CC50,MDA-MB-435,43.8 µM
same,CC50,SK-MEL-2,69.7 µM
same,CC50,SK-MEL-5,58.3 µM
same,CC50,UACC-257,49.9 µM
same,CC50,UACC-62 [2],50.1 µM
same,CC50,IGROV1,81.2 µM
same,CC50,OVCAR-5,55.2 µM
same,CC50,OVCAR-8,58.4 µM
same,CC50,NCI/ADR-RES,> 100 µM
same,CC50,SK-OV-3,> 100 µM
same,CC50,786-0,56.2 µM
same,CC50,A498,53.1 µM
same,CC50,CAKI-1,40.4 µM
same,CC50,RXF 393,37.3 µM
same,CC50,SN12C,58.5 µM
same,CC50,TK-10,35.8 µM
same,CC50,UO-31,49.5 µM
same,CC50,PC-3,70.9 µM
same,CC50,DU-145,42 µM
same,CC50,MCF7,62.5 µM
same,CC50,BT-549,44.3 µM
same,CC50,T-47D,62.4 µM
same,GI50,MALME-3M [3]; MALME-3M,1.47 µM
same,TGI,MALME-3M [3]; MALME-3M,4.6e-06 M
same,Percent Growth,MALME-3M [3]; [5],−57%
same,Percent Growth,MALME-3M [3]; [6],−34%
same,Percent Growth,MALME-3M [3]; [7],67%
same,Percent Growth,MALME-3M [3]; [8],99%
same,Percent Growth,MALME-3M [3]; [9],103%
same,GI50,UACC-62 [4]; UACC-62,4.86 µM
same,TGI,UACC-62 [4]; UACC-62,18.9 µM
same,Percent Growth,"UACC-62 [4]; UACC-62, Log10 Concentration −4.0",−85%
same,Percent Growth,"UACC-62 [4]; UACC-62, Log10 Concentration −5.0",33%
same,Percent Growth,"UACC-62 [4]; UACC-62, Log10 Concentration −6.0",88%
same,Percent Growth,"UACC-62 [4]; UACC-62, Log10 Concentration −7.0",95%
same,Percent Growth,"UACC-62 [4]; UACC-62, Log10 Concentration −8.0",95%
"C=C1C(=O)O[C@H]2[C@H]1CC/C(COC(=O)NCCN1CCCC1)=C\CC[C@@]1(C)O[C@@H]21 [JVM 59, ((1aR,7aS,10aS,10bS,E)-1a-methyl-8-methylene-9-oxo-1a,2,3,6,7,7a,8,9,10a,10b-decahydrooxireno[2′,3′:9,10]cyclodeca[1,2-b]furan-5-yl)methyl-(2-(pyrrolidin-1-yl)ethyl)carbamate]",GI50,"OVCAR-4; OVCAR-4, five dose",10.4 µM
same,IC (TGI),"OVCAR-4; OVCAR-4, five dose",24.7 µM
same,CC50,"OVCAR-4; OVCAR-4, five dose",58.5 µM
same,GI50,HL-60(TB),4.15 µM
same,CC50,HL-60(TB),70.3 µM
same,IC (TGI),HL-60(TB),18.3 µM
same,cytotoxicity compared to MMB,AML 052308 cells,almost equal cytotoxicity to MMB
same,GI50,"MALME-3M [3]; Homo sapiens, Malme-3M",4.18 µM
same,CC50,"MALME-3M [3]; Homo sapiens, Malme-3M",55.2 µM
same,TGI,"MALME-3M [3]; MALME-3M, five dose",1.59E−5
same,Percent Growth,MALME-3M [3]; [5],−74%
same,Percent Growth,MALME-3M [3]; [6],18%
same,Percent Growth,MALME-3M [3]; [7],102%
same,Percent Growth,MALME-3M [3]; [8],93%
same,Percent Growth,MALME-3M [3]; [9],91%
same,GI50,"UACC-62 [4]; Homo sapiens, UACC-62",13.3 µM
same,CC50,UACC-62 [4]; Homo sapiens,55.8 µM
same,IC (TGI),UACC-62 [4]; Homo sapiens,27.3 µM
same,GI50,RPMI-8226; RPMI-8226,8.71 µM
same,CC50,RPMI-8226,97.1 µM
same,TGI,"RPMI-8226; RPMI-8226, five dose",3.01E−5
same,Percent Growth,RPMI-8226; [10],−51%
same,Percent Growth,RPMI-8226; [11],47%
same,Percent Growth,RPMI-8226; [12],97%
same,Percent Growth,RPMI-8226; [13],98%
same,Percent Growth,RPMI-8226; [14],184%
C=C1C(=O)O[C@H]2[C@H]1CC/C(COC(=S)n1ccnc1)=C\CC[C@@]1(C)O[C@@H]21 [JVM 66],GI50,"OVCAR-4; OVCAR-4, NCI five dose",19.8 µM
same,IC (TGI),"OVCAR-4; OVCAR-4, NCI five dose",90.9 µM
same,CC50,"OVCAR-4; OVCAR-4, NCI five dose",> 100 µM
same,GI50,HL-60(TB),4.05 µM
same,CC50,HL-60(TB),69.5 µM
same,IC (TGI),HL-60(TB),16.2 µM
same,cytotoxicity compared to MMB,AML 052308 cells,more potent than MMB
same,fold more cytotoxic than MMB,AML 052308 cells,about 6 fold
same,fold more potent than parthenolide,AML 052308 cells; AML 052308 cells,3 fold
same,GI50,"MALME-3M [3]; Homo sapiens, Malme-3M",14.5 µM
same,CC50,"MALME-3M [3]; Homo sapiens, Malme-3M",> 100 µM
same,Percent Growth,MALME-3M [3]; [5],−32%
same,Percent Growth,MALME-3M [3]; [6],66%
same,Percent Growth,MALME-3M [3]; [7],107%
same,Percent Growth,MALME-3M [3]; [8],95%
same,Percent Growth,MALME-3M [3]; [9],94%
same,TGI,"MALME-3M [3]; MALME-3M, NCI five dose",4.74E−5
same,GI50,"UACC-62 [4]; Homo sapiens, UACC-62",13.9 µM
same,CC50,UACC-62 [4]; Homo sapiens,74.8 µM
same,IC (TGI),UACC-62 [4]; Homo sapiens,32.3 µM
same,GI50,RPMI-8226; RPMI-8226,11 µM
same,CC50,RPMI-8226,> 100 µM
same,Percent Growth,RPMI-8226; [10],−31%
same,Percent Growth,RPMI-8226; [11],53%
same,Percent Growth,RPMI-8226; [12],102%
same,Percent Growth,RPMI-8226; [13],103%
same,Percent Growth,RPMI-8226; [14],103%
same,TGI,"RPMI-8226; RPMI-8226, NCI five dose",4.29E−5

# From patent publication US9469650B2, “Melampomagnolide B derivatives” (BOARD OF TRUSTEES OF THE UNIVERSITY OF ARKANSAS, priority 2013, dated 2016)
